# Measurements reported in patent US8192962B2, “Processes for detecting toxic substances” (Daikin Industries, Ltd., priority 2001, dated 2012).
# Tested on: Genes belonging to other category
# Assay: DNA chip mRNA expression in yeast, genes belonging to other category (Table 9)
# Assay type: cell-based, Saccharomyces cerevisiae S288C
# Outline: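 Measured as treated-to-untreated fluorescence ratio on a full-genome yeast DNA chip. Cells (S288C, YPD, 25° C.) were exposed in log phase for two hours to one chemical, dosed to curb growth without killing.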
smiles,measurement,setting,value
"[Cl][Cd][Cl] [(2), CdCl2]",The level of expressed mRNA in the presence of chemical substance/The level of expressed mRNA in the absence of chemical substance,yeast gene YAR010C,1.2
same,The level of expressed mRNA in the presence of chemical substance/The level of expressed mRNA in the absence of chemical substance,yeast gene YBL005W-A,0.9
same,The level of expressed mRNA in the presence of chemical substance/The level of expressed mRNA in the absence of chemical substance,yeast gene YBL041W,1.4
same,The level of expressed mRNA in the presence of chemical substance/The level of expressed mRNA in the absence of chemical substance,yeast gene YBL043W,1.2
same,The level of expressed mRNA in the presence of chemical substance/The level of expressed mRNA in the absence of chemical substance,yeast gene YBL078C,2.7
same,The level of expressed mRNA in the presence of chemical substance/The level of expressed mRNA in the absence of chemical substance,yeast gene YBR214W,2.1
same,The level of expressed mRNA in the presence of chemical substance/The level of expressed mRNA in the absence of chemical substance,yeast gene YCL020W,2.5
same,The level of expressed mRNA in the presence of chemical substance/The level of expressed mRNA in the absence of chemical substance,yeast gene YCL027W,2.0
same,The level of expressed mRNA in the presence of chemical substance/The level of expressed mRNA in the absence of chemical substance,yeast gene YCR004C,1.0
same,The level of expressed mRNA in the presence of chemical substance/The level of expressed mRNA in the absence of chemical substance,yeast gene YCR071C,0.7
same,The level of expressed mRNA in the presence of chemical substance/The level of expressed mRNA in the absence of chemical substance,yeast gene YCR088W,1.1
same,The level of expressed mRNA in the presence of chemical substance/The level of expressed mRNA in the absence of chemical substance,yeast gene YDL008W,1.0
same,The level of expressed mRNA in the presence of chemical substance/The level of expressed mRNA in the absence of chemical substance,yeast gene YDL238C,1.0
same,The level of expressed mRNA in the presence of chemical substance/The level of expressed mRNA in the absence of chemical substance,yeast gene YDR055W,2.1
same,The level of expressed mRNA in the presence of chemical substance/The level of expressed mRNA in the absence of chemical substance,yeast gene YDR084C,0.9
same,The level of expressed mRNA in the presence of chemical substance/The level of expressed mRNA in the absence of chemical substance,yeast gene YDR085C,1.8
same,The level of expressed mRNA in the presence of chemical substance/The level of expressed mRNA in the absence of chemical substance,yeast gene YDR104C,1.1
same,The level of expressed mRNA in the presence of chemical substance/The level of expressed mRNA in the absence of chemical substance,yeast gene YDR115W,0.9
same,The level of expressed mRNA in the presence of chemical substance/The level of expressed mRNA in the absence of chemical substance,yeast gene YDR259C,1.0
same,The level of expressed mRNA in the presence of chemical substance/The level of expressed mRNA in the absence of chemical substance,yeast gene YDR315C,1.4
same,The level of expressed mRNA in the presence of chemical substance/The level of expressed mRNA in the absence of chemical substance,yeast gene YDR358W,1.1
same,The level of expressed mRNA in the presence of chemical substance/The level of expressed mRNA in the absence of chemical substance,yeast gene YDR388W,0.7
same,The level of expressed mRNA in the presence of chemical substance/The level of expressed mRNA in the absence of chemical substance,yeast gene YDR432W,0.8
same,The level of expressed mRNA in the presence of chemical substance/The level of expressed mRNA in the absence of chemical substance,yeast gene YDR481C,2.3
same,The level of expressed mRNA in the presence of chemical substance/The level of expressed mRNA in the absence of chemical substance,yeast gene YDR510W,1.3
same,The level of expressed mRNA in the presence of chemical substance/The level of expressed mRNA in the absence of chemical substance,yeast gene YEL042W,0.9
same,The level of expressed mRNA in the presence of chemical substance/The level of expressed mRNA in the absence of chemical substance,yeast gene YEL066W,2.9
same,The level of expressed mRNA in the presence of chemical substance/The level of expressed mRNA in the absence of chemical substance,yeast gene YER039C,1.2
same,The level of expressed mRNA in the presence of chemical substance/The level of expressed mRNA in the absence of chemical substance,yeast gene YER107C,0.5
same,The level of expressed mRNA in the presence of chemical substance/The level of expressed mRNA in the absence of chemical substance,yeast gene YER130C,1.6
same,The level of expressed mRNA in the presence of chemical substance/The level of expressed mRNA in the absence of chemical substance,yeast gene YFL022C,0.9
same,The level of expressed mRNA in the presence of chemical substance/The level of expressed mRNA in the absence of chemical substance,yeast gene YFL028C,1.1
same,The level of expressed mRNA in the presence of chemical substance/The level of expressed mRNA in the absence of chemical substance,yeast gene YFL043C,1.2
same,The level of expressed mRNA in the presence of chemical substance/The level of expressed mRNA in the absence of chemical substance,yeast gene YGL158W,2.8
same,The level of expressed mRNA in the presence of chemical substance/The level of expressed mRNA in the absence of chemical substance,yeast gene YGL229C,0.7
same,The level of expressed mRNA in the presence of chemical substance/The level of expressed mRNA in the absence of chemical substance,yeast gene YGR136W,1.2
same,The level of expressed mRNA in the presence of chemical substance/The level of expressed mRNA in the absence of chemical substance,yeast gene YGR189C,0.9
same,The level of expressed mRNA in the presence of chemical substance/The level of expressed mRNA in the absence of chemical substance,yeast gene YGR213C,2.9
same,The level of expressed mRNA in the presence of chemical substance/The level of expressed mRNA in the absence of chemical substance,yeast gene YGR257C,0.8
same,The level of expressed mRNA in the presence of chemical substance/The level of expressed mRNA in the absence of chemical substance,yeast gene YHR004C,1.1
same,The level of expressed mRNA in the presence of chemical substance/The level of expressed mRNA in the absence of chemical substance,yeast gene YHR071W,1.1
same,The level of expressed mRNA in the presence of chemical substance/The level of expressed mRNA in the absence of chemical substance,yeast gene YHR139C,4.6
same,The level of expressed mRNA in the presence of chemical substance/The level of expressed mRNA in the absence of chemical substance,yeast gene YHR142W,0.8
same,The level of expressed mRNA in the presence of chemical substance/The level of expressed mRNA in the absence of chemical substance,yeast gene YIL123W,0.5
same,The level of expressed mRNA in the presence of chemical substance/The level of expressed mRNA in the absence of chemical substance,yeast gene YIL140W,1.0
same,The level of expressed mRNA in the presence of chemical substance/The level of expressed mRNA in the absence of chemical substance,yeast gene YJL073W,0.8
same,The level of expressed mRNA in the presence of chemical substance/The level of expressed mRNA in the absence of chemical substance,yeast gene YJL089W,1.5
same,The level of expressed mRNA in the presence of chemical substance/The level of expressed mRNA in the absence of chemical substance,yeast gene YJL116C,1.8
same,The level of expressed mRNA in the presence of chemical substance/The level of expressed mRNA in the absence of chemical substance,yeast gene YJR004C,0.8
same,The level of expressed mRNA in the presence of chemical substance/The level of expressed mRNA in the absence of chemical substance,yeast gene YJR086W,1.1
